According to patent publication US20150141435A1, “2-PYRIDONE ANTIMICROBIAL COMPOSITIONS” (Emergent BioSolutions, priority 2010, published 2015):
Counter-ions that a name gives are not always drawn. Like-named read-outs stand apart in the source and are kept apart here.

Experiments:
Type in all cases: cell-based
S. aureus ATCC 25923 = assay: MIC, CLSI broth microdilution (Table 1); details: Staphylococcus aureus
[1] = tested on: S. aureus ATCC 43300 (MRSA, FQ-S); assay: MIC, CLSI broth microdilution (Table 1); details: Staphylococcus aureus, read-out: MIC S. aureus ATCC 43300 (MRSA, FQ-S)
[2] = tested on: S. aureus BAA-1720 (MRSA, FQ-R); assay: MIC, CLSI broth microdilution (Table 1); details: Staphylococcus aureus, read-out: MIC S. aureus BAA-1720 (MRSA, FQ-R)
E. faecium ATCC 19434 = assay: MIC, CLSI broth microdilution (Table 1); details: Enterococcus faecium
E. faecalis ATCC 29212 = assay: MIC, CLSI broth microdilution (Table 1); details: Enterococcus faecalis
S. pneumonia ATCC 49619 = assay: MIC, CLSI broth microdilution (Table 1); details: Streptococcus pneumoniae
E. coli ATCC 25922 = assay: MIC, CLSI broth microdilution (Table 2); details: Escherichia coli
A. baumannii ATCC 19606 = assay: MIC, CLSI broth microdilution (Table 2); details: Acinetobacter baumannii
P. aeruginosa ATCC 27853 = assay: MIC, CLSI broth microdilution (Table 2); details: Pseudomonas aeruginosa
K. pneumoniae ATCC 33495 = assay: MIC, CLSI broth microdilution (Table 2); details: Klebsiella pneumoniae
H. influenzae ATCC 49247 = assay: MIC, CLSI broth microdilution (Table 2); details: Haemophilus influenzae
[3] = tested on: S. maltophilia ATCC 17677; assay: MIC, CLSI broth microdilution (Table 2); details: Stenotrophomonas maltophilia
[4] = tested on: Bacillus anthracis Ames strain; assay: microbe, parasite or virus in culture
[5] = tested on: Brucella abortus ATCC 23448; assay: microbe, parasite or virus in culture; details: ATCC23448
[6] = tested on: Burkholderia mallei ATCC 23344; assay: microbe, parasite or virus in culture; details: ATCC23344
[7] = tested on: Burkholderia pseudomallei ATCC 23343; assay: microbe, parasite or virus in culture; details: ATCC23343
[8] = tested on: Francisella tularensis Schu S4; assay: microbe, parasite or virus in culture; details: SCHUS4
Yersinia pestis C092 = assay: microbe, parasite or virus in culture
[9] = ATCC25923, Gram positive, MHB, 37° C., 16-20 hours, read-out: MIC S. aureus ATCC 25923
[10] = Gram positive, MHB, 37° C., 16-20 hours
[11] = ATCC19434, Gram positive, MHB, 37° C., 16-20 hours, read-out: MIC E. faecium ATCC 19434
[12] = ATCC29212, Gram positive, MHB, 37° C., 16-20 hours, read-out: MIC E. faecalis ATCC 29212
[13] = ATCC49619, Gram positive, MHB, 37° C., 16-20 hours, read-out: MIC S. pneumonia ATCC 49619
[14] = ATCC25922, Gram negative, MHB, 37° C., 16-20 hours, read-out: MIC E. coli ATCC 25922
[15] = ATCC19606, Gram negative, MHB, 37° C., 16-20 hours, read-out: MIC A. baumannii B. ATCC 19606
[16] = ATCC27853, Gram negative, MHB, 37° C., 16-20 hours, read-out: MIC P. aeruginosa ATCC 27853
[17] = ATCC33495, read-out: MIC K. pneumoniae ATCC 33495
[18] = ATCC49247, Gram negative, MHB, 37° C., 16-20 hours, read-out: MIC H. influenzae ATCC 49247
[19] = ATCC17677, Gram negative, MHB, 37° C., 16-20 hours, read-out: MIC S. maltophilia ATCC 17677
[20] = ATCC29212, read-out: MIC E. faecalis ATCC 29212
[21] = ATCC25923, read-out: MIC S. aureus ATCC 25923
[22] = ATCC19434, read-out: MIC E. faecium ATCC 19434
[23] = ATCC49619, read-out: MIC S. pneumonia ATCC 49619
[24] = ATCC25922, read-out: MIC E. coli ATCC 25922
[25] = ATCC19606, read-out: MIC A. baumannii B. ATCC 19606
[26] = ATCC27853, read-out: MIC P. aeruginosa ATCC 27853
[27] = ATCC49247, read-out: MIC H. influenzae ATCC 49247
[28] = ATCC17677, read-out: MIC S. maltophilia ATCC 17677
[29] = ATCC33495, Gram negative, MHB, 37° C., 16-20 hours, read-out: MIC K. pneumoniae ATCC 33495

Compound | MIC (S. aureus ATCC 25923; [9]) | MIC [1, 10] | MIC (K. pneumoniae ATCC 33495; [17]) | MIC [4] | MIC [5] | MIC [6] | MIC [7] | MIC [8] | MIC (Yersinia pestis C092) | MIC (E. faecalis ATCC 29212; [20]) | MIC (S. aureus ATCC 25923; [21]) | MIC [1] | MIC [2] | MIC (E. faecium ATCC 19434; [22]) | MIC (S. pneumonia ATCC 49619; [23]) | MIC (E. coli ATCC 25922; [24]) | MIC (A. baumannii ATCC 19606; [25]) | MIC (P. aeruginosa ATCC 27853; [26]) | MIC (H. influenzae ATCC 49247; [27]) | MIC [3, 28] | other results
Cc1c(-c2cc(N)cc(F)c2)ccn2c(=O)c(C(=O)O)cc(C3CC3)c12 [Example 9 K salt, 8-(3-amino-5-fluoro-phenyl)-1-cyclopropyl-9-methyl-4-oxo-4H-quinolizine-3-carboxylic acid] | 0.008 µg/mL | 0.008 µg/mL | 0.125 to 0.25 µg/mL | 0.008 µg/mL | 0.063 µg/mL | 0.125 to 0.25 µg/mL | 0.25 µg/mL | 0.016 µg/mL | 0.031 µg/mL |  |  |  |  |  |  |  |  |  |  |  | MIC [2, 10]: 0.25 µg/mL; MIC (E. faecium ATCC 19434; [11]): 0.5 µg/mL; MIC (E. faecalis ATCC 29212; [12]): 0.032 µg/mL; MIC (S. pneumonia ATCC 49619; [13]): 0.064 µg/mL; MIC (E. coli ATCC 25922; [14]): 0.064 µg/mL; MIC (A. baumannii ATCC 19606; [15]): 0.125 µg/mL; MIC (P. aeruginosa ATCC 27853; [16]): 2 µg/mL; MIC (H. influenzae ATCC 49247; [18]): 0.008 µg/mL; MIC [3, 19]: 0.25 µg/mL
Cc1c(-c2ccnc(F)c2)ccn2c(=O)c(C(=O)O)cc(C3CC3)c12 [Example 20 K salt, 1-cyclopropyl-8-(2-fluoro-pyridin-4-yl)-9-methyl-4-oxo-4H-quinolizine-3-carboxylic acid] | 0.032 µg/mL | 0.016 µg/mL | 0.125 to 0.25 µg/mL | 0.031 µg/mL | 0.063 µg/mL | 0.125 µg/mL | 0.25 µg/mL | 0.008 to 0.016 µg/mL | 0.063 µg/mL | 0.125 µg/mL |  |  |  |  |  |  |  |  |  |  | MIC [2, 10]: 1 µg/mL; MIC (E. faecium ATCC 19434; [11]): 1 µg/mL; MIC (S. pneumonia ATCC 49619; [13]): 0.25 µg/mL; MIC (E. coli ATCC 25922; [14]): 0.064 µg/mL; MIC (A. baumannii ATCC 19606; [15]): 0.25 µg/mL; MIC (P. aeruginosa ATCC 27853; [16]): 2 to 4 µg/mL; MIC (H. influenzae ATCC 49247; [18]): ≤ 0.004 µg/mL; MIC [3, 19]: 0.25 µg/mL
Cc1c(-c2ccc(N)nc2)ccn2c(=O)c(C(=O)O)cc(C3CC3)c12 [Example 21 K salt, 8-(6-amino-pyridin-3-yl)-1-cyclopropyl-9-methyl-4-oxo-4H-quinolizine-3-carboxylic acid] |  |  | 0.064 µg/mL | 0.016 µg/mL | 0.063 µg/mL | 0.125 to 0.25 µg/mL | 0.25 to 0.5 µg/mL | 0.031 µg/mL | 0.031 µg/mL | 0.032 µg/mL | 0.008 µg/mL | 0.008 µg/mL | 0.25 µg/mL | 0.5 µg/mL | 0.032 µg/mL | 0.016 to 0.032 µg/mL | 0.064 to 0.125 µg/mL | 1 to 2 µg/mL | ≤ 0.004 µg/mL | 0.125 µg/mL | 
Cc1c(-c2ccc3[nH]ncc3c2)ccn2c(=O)c(C(=O)O)cc(C3CC3)c12 [Example 23 K salt, 1-cyclopropyl-8-(1H-indazol-5-yl)-9-methyl-4-oxo-4H-quinolizine-3-carboxylic acid] |  |  | 0.125 µg/mL | 0.004 µg/mL | 0.016 µg/mL | 0.063 µg/mL | 0.063 µg/mL | 0.016 µg/mL | 0.016 to 0.031 µg/mL | 0.008 µg/mL | ≤ 0.004 µg/mL | ≤ 0.004 µg/mL | 0.125 µg/mL | 0.25 µg/mL | 0.064 µg/mL | 0.032 µg/mL | 0.125 µg/mL | 2 µg/mL | ≤ 0.004 µg/mL | 0.064 µg/mL | 
Cc1c(-c2cc(F)c(N)cc2F)ccn2c(=O)c(C(=O)O)cc(C3CC3)c12 [Example 28 K salt, 8-(4-amino-2,5-difluoro-phenyl)-1-cyclopropyl-9-methyl-4-oxo-4H-quinolizine-3-carboxylic acid] |  |  | 0.25 to 0.5 µg/mL | 0.004 µg/mL | 0.031 to 0.063 µg/mL | 0.125 to 0.25 µg/mL | 0.125 µg/mL | 0.008 µg/mL | 0.016 to 0.031 µg/mL | 0.016 µg/mL | ≤ 0.004 µg/mL | ≤ 0.004 µg/mL | 0.064 µg/mL | 0.25 µg/mL | 0.032 µg/mL | 0.032 to 0.064 µg/mL | 0.125 µg/mL | 2 µg/mL | ≤ 0.004 µg/mL | 0.125 µg/mL | 
Cc1c(-c2ccc(CN)cc2)ccn2c(=O)c(C(=O)O)cc(C3CC3)c12 [Example 31 K salt, 8-(4-(aminomethyl)-phenyl)-1-cyclopropyl-9-methyl-4-oxo-4H-quinolizine-3-carboxylic acid] |  |  | 0.125 to 0.25 µg/mL | 0.016 to 0.031 µg/mL | 0.25 µg/mL | 0.5 to 1 µg/mL | 1 µg/mL | 0.125 to 0.5 µg/mL | 0.25 µg/mL | 0.25 µg/mL | 0.064 µg/mL | 0.032 µg/mL | 1 µg/mL | 2 µg/mL | 0.125 µg/mL | 0.032 µg/mL | 0.25 µg/mL | 1 µg/mL | 0.016 µg/mL | 0.125 µg/mL | 
Cc1c(-c2ccc(Cl)cc2)ccn2c(=O)c(C(=O)O)cc(C3CC3)c12 [Example 45 K salt, 1-cyclopropyl-8-(4-chloro-phenyl)-9-methyl-4-oxo-4H-quinolizine-3-carboxylic acid] | 0.016 to 0.032 µg/mL | 0.016 µg/mL |  | 0.016 µg/mL | 0.031 µg/mL | 0.063 to 0.125 µg/mL | 0.063 to 0.125 µg/mL | 0.008 to 0.016 µg/mL | 0.031 µg/mL |  |  |  |  |  |  |  |  |  |  |  | MIC [2, 10]: 0.5 µg/mL; MIC (E. faecium ATCC 19434; [11]): 0.5 to 1 µg/mL; MIC (E. faecalis ATCC 29212; [12]): 0.064 µg/mL; MIC (S. pneumonia ATCC 49619; [13]): 0.25 µg/mL; MIC (E. coli ATCC 25922; [14]): 0.25 µg/mL; MIC (A. baumannii ATCC 19606; [15]): 0.25 µg/mL; MIC (P. aeruginosa ATCC 27853; [16]): 2 µg/mL; MIC (K. pneumoniae ATCC 33495; [29]): 0.5 to 1 µg/mL; MIC (H. influenzae ATCC 49247; [18]): 0.016 µg/mL; MIC [3, 19]: 0.25 µg/mL
Cc1c(-c2ccc(O)cc2)ccn2c(=O)c(C(=O)O)cc(C3CC3)c12 [Example 46 K salt, 1-cyclopropyl-8-(4-hydroxy-phenyl)-9-methyl-4-oxo-4H-quinolizine-3-carboxylic acid] |  |  | 0.064 µg/mL | 0.004 µg/mL | 0.031 µg/mL | 0.063 µg/mL | 0.063 µg/mL | 0.016 µg/mL | 0.008 to 0.016 µg/mL | 0.016 µg/mL | ≤ 0.004 µg/mL | ≤ 0.004 µg/mL | 0.125 µg/mL | 0.25 µg/mL | 0.032 µg/mL | 0.032 µg/mL | 0.064 µg/mL | 1 to 2 µg/mL | ≤ 0.004 µg/mL | 0.125 µg/mL | 
Cc1c(-c2ccc(CO)cc2)ccn2c(=O)c(C(=O)O)cc(C3CC3)c12 [Example 48 K salt, 1-cyclopropyl-8-(4-hydroxy-methyl-phenyl)-9-methyl-4-oxo-4H-quinolizine-3-carboxylic acid] | 0.008 to 0.016 µg/mL | 0.008 µg/mL |  | 0.008 µg/mL | 0.031 µg/mL | 0.125 µg/mL | 0.125 µg/mL | 0.016 µg/mL | 0.031 µg/mL |  |  |  |  |  | 0.125 µg/mL |  | 0.125 µg/mL |  |  |  | MIC [2, 10]: 0.5 µg/mL; MIC (E. faecium ATCC 19434; [11]): 1 µg/mL; MIC (E. faecalis ATCC 29212; [12]): 0.032 to 0.064 µg/mL; MIC (E. coli ATCC 25922; [14]): 0.064 µg/mL; MIC (P. aeruginosa ATCC 27853; [16]): 2 µg/mL; MIC (K. pneumoniae ATCC 33495; [29]): 0.25 µg/mL; MIC (H. influenzae ATCC 49247; [18]): ≤ 0.004 µg/mL; MIC [3, 19]: 0.25 µg/mL
